IC50 data for 29 compounds are collected here from US20100292214A1, “Compounds with Antiparasitic Activity, Applications thereof to the Treatment of Infectious Diseases Caused by Apicomplexans” (commissariat a l'Energie Atomique, priority 2007, published 2010).

Counter-ions that a name gives are not always drawn. Like-named read-outs stand apart in the source and are kept apart here.

The test system of assay [1] is asynchronous 3D7 chloroquine-sensitive P. falciparum infected red blood cells. Description: Labeled hypoxanthine incorporation assay (in vitro anti-malarial activity). The assay is classed as cell-based. To be noted: 3D7 chloroquine-sensitive strain, infected RBC, 48 h contact, [3H]-hypoxanthine incorporation, two independent experiments in duplicates, read-out: IC50 assessed on Plasmodium Falciparum.

In assay [2] the test system is Toxoplasma gondii RH-β1 strain. Description: microbe, parasite or virus in culture. Format: cell-based. Conditions: read-out: IC50 assessed on Toxoplama Gondii.
[3] abbreviates: Plasmodium falciparum, 3D7, Erythrocyte.

Turning to `C[C@@H](COC(=O)N1CCC(n2c(=O)oc3ccccc32)CC1)N(Cc1ccccc1)Cc1ccccc1` [Compound 2, (S)-2-(dibenzylamino)propyl 4-(2-oxobenzo[d]oxazol-3(2H)-yl)piperidine-1-carboxylate], the IC50 (as a rule, the concentration that inhibits the measured activity by half) was 14.8 µM in assay [1] (setting [3]) and 0.8 µM in assay [2] (Toxoplasma gondii).
Take `C[C@@H](COC(=O)N1CCC(n2cnc3ccccc32)CC1)N(Cc1ccccc1)Cc1ccccc1` [Compound 3, (S)-2-(dibenzylamino)propyl 4-(1H-benzo[d]imidazol-1-yl)piperidine-1-carboxylate]: the IC50 worked out at 1.81 µM in assay [1] (setting [3]) and 8 µM in assay [2] (Toxoplasma gondii).
On the same counts, the results for `C[C@@H](COC(=O)N1CCC(Oc2nc3ccccc3n2C)CC1)N(Cc1ccccc1)Cc1ccccc1` [Compound 5, (S)-2-(dibenzylamino)propyl 4-(1-methyl-1H-benzo[d]imidazol-2-yloxy)piperidine-1-carboxylate] are 6.16 µM and 2.5 µM.
In the case of `C[C@@H](COC(=O)NCCCn1c(=O)[nH]c2ccccc21)N(Cc1ccccc1)Cc1ccccc1` [Compound 6, (S)-2-(dibenzylamino)propyl 3-(1,2-dihydro-2-oxobenzo[d]imidazol-3-yl)propylcarbamate], the results for the IC50 in assay [1] (setting [3]) and in assay [2] (Toxoplasma gondii) were 16.6 µM and 0.381 µM, respectively.
Taken in the same sequence, the figures for `C[C@@H](COC(=O)N1CCC(N2CCCc3ccccc32)CC1)N(Cc1ccccc1)Cc1ccccc1` [Compound 8, (S)-2-(dibenzylamino)propyl 4-(3,4-dihydroquinolin-1(2H)-yl)piperidine-1-carboxylate] were 2.81 µM and 25 µM.
On the same counts, the results for `O=c1[nH]c2ccccc2n1C1CCN(CCCCN(Cc2ccccc2)Cc2ccccc2)CC1` [Compound 9, 1-(1-(4-(dibenzylamino)butyl)piperidin-4-yl)-1H-benzo[d]imidazol-2(3H)-one] are 2.95 µM and 1.5 µM.
`C[C@@H](COC(=O)N1CCC(n2c(=O)[nH]c3ncccc32)CC1)N(Cc1ccccc1)Cc1ccccc1` [Compound 11, (S)-2-(dibenzylamino)propyl 4-(2,3-dihydro-2-oxoimidazo[4,5-b]pyridin-1-yl)piperidine-1-carboxylate]: the IC50 in assay [1] (setting [3]) turned out to be 3.84 µM; in assay [2] (Toxoplasma gondii), 2.5 µM.
Turning to `C[C@@H](COC(=O)N1CCC(n2c(=O)[nH]c3cc4ccccc4cc32)CC1)N(Cc1ccccc1)Cc1ccccc1` [Compound 12, (S)-2-(dibenzylamino)propyl 4-(1,2-dihydro-2-oxonaphtho[2,3-d]imidazol-3-yl)piperidine-1-carboxylate], the IC50 is 7.2 µM in assay [1] (setting [3]) and 0.75 µM in assay [2] (Toxoplasma gondii).
Consider `C[C@@H](COC(=O)N1CCCC(n2c(=O)[nH]c3ccccc32)CC1)N(Cc1ccccc1)Cc1ccccc1` (stereo partly drawn) [Compound 13, (S)-2-(dibenzylamino)propyl 4-(1,2-dihydro-2-oxobenzo[d]imidazol-3-yl)azepane-1-carboxylate], for which the values for the IC50 in assay [1] (setting [3]) and in assay [2] (Toxoplasma gondii) were 10.7 µM and 5 µM, respectively.
As to `Cc1nc2ccccc2n1C1CCN(C(=O)OC[C@H](C)N(Cc2ccccc2)Cc2ccccc2)CC1` [Compound 15, (S)-2-(dibenzylamino)propyl 4-(2-methyl-1H-benzo[d]imidazol-1-yl)piperidine-1-carboxylate], the IC50 worked out at 2.42 µM in assay [1] (setting [3]) and 3.41 µM in assay [2] (Toxoplasma gondii).
On the same counts, the results for `C[C@@H](COC(=O)N1CCCC(n2c(=O)[nH]c3ccccc32)C1)N(Cc1ccccc1)Cc1ccccc1` (stereo partly drawn) [Compound 16, (S)-2-(dibenzylamino)propyl 3-(1,2-dihydro-2-oxobenzo[d]imidazol-3-yl)piperidine-1-carboxylate] are 2.81 µM and 2.35 µM.
Taken in the same sequence, the figures for `C[C@@H](COC(=O)N1CCC(n2c(=O)[nH]c3ccccc32)C1)N(Cc1ccccc1)Cc1ccccc1` (stereo partly drawn) [Compound 17, (S)-2-(dibenzylamino)propyl 3-(1,2-dihydro-2-oxobenzo[d]imidazol-3-yl)pyrrolidine-1-carboxylate] were 7.18 µM and 3.3 µM.
Regarding `CCOC(=O)C1CN(C(=O)OC[C@H](C)N(Cc2ccccc2)Cc2ccccc2)CCC1n1c(=O)[nH]c2ccccc21` (stereo partly drawn) [Compound 18, 1-(S)-2-(dibenzylamino)propyl 3-ethyl 4-(1,2-dihydro-2-oxobenzo[d]imidazol-3-yl)piperidine-1,3-dicarboxylate], the IC50 in assay [1] (setting [3]) came out at 1.52 µM; in assay [2] (Toxoplasma gondii), 2.81 µM.
Consider `C[C@@H](COC(=O)N1CCC(Cn2c(=O)[nH]c3ccccc32)CC1)N(Cc1ccccc1)Cc1ccccc1` [Compound 19, (S)-2-(dibenzylamino)propyl 4-((1,2-dihydro-2-oxobenzo[d]imidazol-3-yl)methyl)piperidine-1-carboxylate], for which the values for the IC50 in assay [1] (setting [3]) and in assay [2] (Toxoplasma gondii) were 5.79 µM and 3.41 µM, respectively.
On to `C[C@@H](COC(=O)N1CCC(CCn2c(=O)[nH]c3ccccc32)CC1)N(Cc1ccccc1)Cc1ccccc1` [Compound 20, (S)-2-(dibenzylamino)propyl 4-(2-(1,2-dihydro-2-oxobenzo[d]imidazol-3-yl)ethyl)piperidine-1-carboxylate], for which the IC50 in assay [1] (setting [3]) turned out to be 6.84 µM; in assay [2] (Toxoplasma gondii), 4.2 µM.
`C[C@@H](COC(=O)N1CCCC1Cn1c(=O)[nH]c2ccccc21)N(Cc1ccccc1)Cc1ccccc1` (stereo partly drawn) [Compound 23, (S)-2-(dibenzylamino)propyl 2-((1,2-dihydro-2-oxobenzo[d]imidazol-3-yl)methyl)pyrrolidine-1-carboxylate]: the IC50 worked out at 7.27 µM in assay [1] (setting [3]) and 3.1 µM in assay [2] (Toxoplasma gondii).
On the same counts, the results for `C[C@@H](COC(=O)N1CCC(n2c(=O)[nH]c3ccccc32)CC1)N(Cc1ccccc1)Cc1ccccc1` [Compound 25, (S)-2-(dibenzylamino)propyl 4-(1,2-dihydro-2-oxobenzo[d]imidazol-3-yl)piperidine-1-carboxylate] are 4.9 µM and 14 µM.
On the same counts, the results for `O=C(OC[C@H](Cc1ccccc1)N(Cc1ccccc1)Cc1ccccc1)N1CCC(n2c(=O)[nH]c3ccccc32)CC1` [Compound 26, (S)-2-(dibenzylamino)-3-phenylpropyl 4-(1,2-dihydro-2-oxobenzo[d]imidazol-3-yl)piperidine-1-carboxylate] are 1.4 µM and 4.8 µM.
For the compound `C[C@@H](COC(=O)N1CC=C(n2c(=O)[nH]c3ccccc32)CC1)N(Cc1ccccc1)Cc1ccccc1` [Compound 28, (S)-2-(dibenzylamino)propyl 5,6-dihydro-4-(1,2-dihydro-2-oxobenzo[d]imidazol-3-yl)pyridine-1(2H)-carboxylate], the IC50 turned out to be 4.1 µM in assay [1] (setting [3]) and 3.5 µM in assay [2] (Toxoplasma gondii).
As for `O=C(OCCCN(Cc1ccccc1)Cc1ccccc1)N1CCC(n2c(=O)[nH]c3ccccc32)CC1` [Compound 29, 3-(dibenzylamino)propyl 4-(1,2-dihydro-2-oxobenzo[d]imidazol-3-yl)piperidine-1-carboxylate], the IC50 came to 3.6 µM in assay [1] (setting [3]) and 2.5 µM in assay [2] (Toxoplasma gondii).
On to `O=C(OCCN(Cc1ccccc1)Cc1ccccc1)N1CCC(n2c(=O)[nH]c3ccccc32)CC1` [Compound 30, 2-(dibenzylamino)ethyl 4-(1,2-dihydro-2-oxobenzo[d]imidazol-3-yl)piperidine-1-carboxylate], for which the IC50 in assay [1] (setting [3]) was found to be 6.9 µM; in assay [2] (Toxoplasma gondii), 7.5 µM.
For the compound `O=C(OCCC(c1ccccc1)c1ccccc1)N1CCC(n2c(=O)[nH]c3ccccc32)CC1` [Compound 36, 3,3-diphenylpropyl 4-(1,2-dihydro-2-oxobenzo[d]imidazol-3-yl)piperidine-1-carboxylate], the IC50 was found to be 8.54 µM in assay [1] (setting [3]) and 1.2 µM in assay [2] (Toxoplasma gondii).
Regarding `O=C(OC[C@H](Cc1ccccc1)N(Cc1ccccc1)Cc1ccccc1)N1CCC(n2c(=O)n(Cc3ccccc3)c3ccccc32)CC1` [Compound 37, (S)-2-(dibenzylamino)-3-phenylpropyl 4-(1-benzyl-1,2-dihydro-2-oxobenzo[d]imidazol-3-yl)piperidine-1-carboxylate, hydrochloride salt], the 50% inhibitory concentration (IC50) in assay [1] (hydrochloride salt) came out at 0.873 µM; in assay [2] (hydrochloride salt), 1.8 µM.
With `C[C@@H](COC(=O)N1CCC(n2c(=O)[nH]c3cc(Cl)ccc32)CC1)N(Cc1ccccc1)Cc1ccccc1` [Compound 38, (S)-2-(dibenzylamino)propyl 4-(6-chloro-1,2-dihydro-2-oxobenzo[d]imidazol-3-yl)piperidine-1-carboxylate], the IC50 was found to be 4.68 µM in assay [1] (setting [3]) and 1 µM in assay [2] (Toxoplasma gondii).
Taken in the same sequence, the figures for `O=C(OCCC1CCN(Cc2ccccc2)CC1)N1CCC(n2c(=O)[nH]c3ccccc32)CC1` [Compound 40, 2-(1-benzylpiperidin-4-yl)ethyl 4-(1,2-dihydro-2-oxobenzo[d]imidazol-3-yl)piperidine-1-carboxylate] were 8.16 µM and 0.98 µM.
Turning to `COC(=O)c1ccc(CN(CCOC(=O)N2CCC(n3c(=O)[nH]c4ccccc43)CC2)Cc2ccccc2)cc1` [Compound 187, 2-(benzyl(4-(methoxycarbonyl)benzyl)amino)ethyl 4-(2-oxo-2,3-dihydro-1H-benzo[d]imidazol-1-yl)piperidine-1-carboxylate], in assay [2] (Toxoplasma gondii), the IC50 is 2.2 µM.
For `O=C(OCCCN(Cc1ccccc1)Cc1cccc(OCc2ccccc2)c1)N1CCC(n2c(=O)[nH]c3ccccc32)CC1` [Compound 188, 3-(benzyl(3-(benzyloxy)benzyl)amino)propyl 4-(2-oxo-2,3-dihydro-1H-benzo[d]imidazol-1-yl)piperidine-1-carboxylate], in assay [2] (Toxoplasma gondii), the IC50 came out at 3 µM.
For the compound `CC(C)C[C@@H](COC(=O)N1CCC(n2c(=O)[nH]c3ccccc32)CC1)NCc1ccccc1` [Compound 189, (S)-2-(benzylamino)-4-methylpentyl 4-(2-oxo-2,3-dihydro-1H-benzo[d]imidazol-1-yl)piperidine-1-carboxylate], the IC50 in assay [2] (Toxoplasma gondii) was found to be 2.3 µM.
In the case of `O=C(OCC(Cc1ccccc1)NCc1ccccc1)N1CCC(n2c(=O)[nH]c3ccccc32)CC1` (stereo not drawn) [Compound 190, 2-(benzylamino)-3-phenylpropyl 4-(2-oxo-2,3-dihydro-1H-benzo[d]imidazol-1-yl)piperidine-1-carboxylate], the IC50 in assay [2] (Toxoplasma gondii) is 0.8 µM.
